Earlier results on two compounds are cited in patent US20190282513A1, “COMPOUND FOR USE IN RELIEF OF PAIN AND METHOD TO PRODUCE THEREOF” (priority 2018, published 2019).

Structures are written as SMILES.

For series [1] the following is noted: taken orally.
For series [2] the following is noted: compared with ibuprofen.

Take `C=C(C)[C@@H]1CCC(C)=C[C@H]1c1c(O)cc(CCCCC)cc1O` [CBD, cannabidiol]: the “anti-inflammatory analgesic effect in cancer-related pain” value is recorded as “effective anti-inflammatory analgesic”. Further, in series [1], the “treatment of chronic pain” value was “effectively treated chronic pain”.
As to `C/C=C(/C=O)[C@@H](CC=O)CC(=O)OCCc1ccc(O)cc1` [oleocanthal], the anti-inflammatory properties result in series [2] was “anti-inflammatory properties similar to ibuprofen”.
